Measurements from PMC6345779, “Hypoculoside, a sphingoid base-like compound from Acremonium disrupts the membrane integrity of yeast cells” (Scientific Reports, 2019).

What was measured:
[1] = tested on: vacuoles of wild type yeast cells; assay: FM 4-64 fluorescence microscopy of vacuolar structure; type: cell-based, Saccharomyces cerevisiae; conditions: 11.6 µM, FM 4-64 pre-labelled wild type cells, N = 100 cells
Method: As several vacuolar transport mutants were sensitive to hypoculoside (Fig. 3), we examined the effect of hypoculoside on the vacuolar structure of yeast cells. We incubated wild type yeast cells with FM 4–64, a dye that stains the vacuolar membranes, for 1 hour. We then washed off the excess FM 4–64 from the medium and transferred the cells into fresh medium with either hypoculoside or hypoculine or DMSO. […] In contrast, about 50% of 11.6 µM hypoculoside-treated cells had defective vacuoles (Fig. 7B). However, only 3% of 11.6 µM hypoculine-treated cells had defective vacuoles. Thus, the effect of hypoculoside and hypoculine on vacuolar structure correlates with their inhibitory activities.
Figure 7 Hypoculoside but not hypoculine disrupts the vacuolar structure of yeast cells. Wild type yeast cells containing vacuoles pre-labelled with the lipophilic dye FM 4-64 were exposed to either DMSO or hypoculoside or hypoculine at the indicated concentrations for 1 hour. Effects of the compounds on vacuolar morphology was analyzed by fluorescence microscopy. […] (B) Quantification of the various categories for cells treated with either DMSO or hypoculoside or hypoculine is plotted (N = 100 cells). […]
Labeling of yeast cells with FM4-64 (Invitrogen) was done as previously reported. […] The images were acquired using an inverted fluorescence microscope ZEISS LSM 5 LIVE (Carl Zeiss, Oberkochen, Germany).

[2] = tested on: Wild type strain (BY4743); assay: Rescue of myriocin-induced growth inhibition in yeast; type: cell-based, Saccharomyces cerevisiae
Method: Myriocin is an inhibitor of Serine palmitoyltransferase (SPT), which catalyzes the first step in the synthesis of sphingolipid biosynthesis. Addition of PHS or DHS can rescue inhibition caused by myriocin[28]. We tested whether hypoculoside can rescue the toxicity of myriocin–treated cells.
Wild type strain (BY4743) was grown in YPD medium containing different concentrations of myriocin and either phytosphingosine (PHS) or dihydrosphingosine (DHS) or hypoculoside (HYP) at the indicated concentrations. Normalized growth at the different concentrations after 24 hours of incubation at 30 °C is plotted for the various cultures.

[3] = tested on: Klebsiella aerogenes (ATCC 13048); assay: Antibacterial growth inhibition assay; type: cell-based; conditions: Gram-negative
Method: (§1) Effect of hypoculoside on the growth of three bacterial strains Staphylococcus aureus (ATCC 25923), Pseudomonas aeruginosa (ATCC 9027) and Klebsiella aerogenes (ATCC 13048) was assessed as previously described. Cytotoxicity of hypoculoside on the A549 human lung cell line and the pancreatic carcinoma cell lines MIA PaCa-2 and PANC-1 was determined as described before. A549 and MIA PaCa-2 were seeded at 1,500 cells per well, and PANC-1 cells were seeded at 2,500 cells per well in a 384-well microplate. Cells were treated with hypoculoside at various concentrations and incubated for 72 hours at 37 °C in the presence of 5% CO2. Cytotoxic effect of hypoculoside was measured using the PrestoBlue™ cell viability reagent (Life Technologies). Following incubation of the microplates with the dye for 2 hours, the fluorescence reading (Excitation/Emission: 560 nm/590 nm) was recorded using the Tecan Infinite M1000 Pro reader.
(§2) Legends for Supplementary figures and tables
(§3) Figure S1 Analysis of hypoculoside by MS/MS
(§4) Collision-Induced dissociation (CID) MS/MS fragmentation spectra of hypoculoside (8) generated at energies of 10 eV, 20 eV and 40 eV are depicted in panels A, B and C […]
(§5) Figure S2 Hypoculoside has antifungal, antibacterial and mammalian cytotoxic […]
(§6) A. Logarithmically growing Candida albicans cells were exposed to hypoculoside and amphotericin B at the indicated concentrations in triplicates in a 96-well microplate. A picture of the microplate after 24 hours of incubation at 30 °C is […]
(§7) B. Saccharomyces cerevisiae cultures in duplicate were treated with hypoculoside at the indicated concentrations in YPD medium at 30 °C for 24 hours. Growth of the yeast cultures as measured by OD600 nm is plotted against hypoculoside concentration. Yeast cells treated with either DMSO or 21 µM hypoculoside for 24 hours were then washed in YPD and plated at different dilutions on a YPD agar and incubated at 30 °C. The YPD agar plate was photographed after 2 […]
C. […]

[4] = tested on: Staphylococcus aureus (ATCC 25923); assay: Antibacterial growth inhibition assay; type: cell-based; conditions: ATCC25923, Gram-positive, read-out: IC50 against Staphylococcus aureus
Method: as §1, §2, §3, §4, §5, §6, §7
C. […]

[5] = tested on: Pseudomonas aeruginosa (ATCC 9027); assay: Antibacterial growth inhibition assay; type: cell-based; conditions: Gram-negative
Method: as §1, §2, §3, §4, §5, §6, §7
C. […]

[6] = tested on: Saccharomyces cerevisiae cells; assay: Recovery of yeast cells on compound-free YPD agar after treatment (cytocidal vs cytostatic); type: cell-based; conditions: 21 µM for 24 h, then transfer to hypoculoside-free YPD agar plates
Method: We evaluated the potency of hypoculoside by examining its effect on the growth of Candida albicans strain (SC5314) using the Clinical and Laboratory Standards Institute (CLSI) guidelines. We used the well-known antifungal amphotericin B as a positive control. We exposed logarithmically growing Candida albicans cells to hypoculoside and amphotericin B at various concentrations and monitored the growth by recording the OD600 nm after 24 hours. […] We also tested the effect of hypoculoside on the growth of the Saccharomyces cerevisiae strain (BY4743). […] To test whether hypoculoside has cytocidal or cytostatic activity, we examined the ability of Saccharomyces cerevisiae cells to recover following treatment with either hypoculoside (21 µM) or DMSO for 24 h.
as §2, §3, §4, §5
B. Saccharomyces cerevisiae cultures in duplicate were treated with hypoculoside at the indicated concentrations in YPD medium at 30 °C for 24 hours. Growth of the yeast cultures as measured by OD600 nm is plotted against hypoculoside concentration. […]

With `CC(N)C(O)CCCCCCCCCCCCCCCCCCC(O)C(C)OC1OC(CO)C(O)C(O)C1O` (stereo not shown) [hypoculoside, Hypoculoside] the “cells with defective vacuoles” value [1] was “about 50%”, the “rescue of myriocin-induced inhibition” value ([2]; hypoculoside at the concentrations of Fig. 6) was “did not rescue” and the “combined effect with myriocin on growth” value ([2]; total effect = sum of individual effects) was “additive effect”. The “inhibitory activity against Klebsiella aerogenes” value [3] was “not against Gram-negative bacteria”, the IC50 [4] was 11.7 µM and the “inhibitory activity against Pseudomonas aeruginosa” value [5] was “not against Gram-negative bacteria”. For the same molecule, the “cytocidal or cytostatic activity (ability to recover following treatment)” value [6] was “cytocidal activity”.
